{"source": "PubChem BioAssay (NCI)", "assay_in_all_cases": "NCI-60 cell line screen, 48 h", "key": {"[1]": {"test_system": "786-0 renal"}, "[2]": {"test_system": "A498 renal"}, "[3]": {"test_system": "A549 NSCLC"}, "[4]": {"test_system": "ACHN renal"}, "[5]": {"test_system": "BT-549 breast"}, "[6]": {"test_system": "CAKI-1 renal"}, "[7]": {"test_system": "CCRF-CEM leukemia"}, "[8]": {"test_system": "COLO 205 colon"}, "[9]": {"test_system": "DU-145 prostate"}, "[10]": {"test_system": "EKVX NSCLC"}, "[11]": {"test_system": "HCC-2998 colon"}, "[12]": {"test_system": "HCT-116 colon"}, "[13]": {"test_system": "HCT-15 colon"}, "[14]": {"test_system": "HL-60(TB) leukemia"}, "[15]": {"test_system": "HOP-62 NSCLC"}, "[16]": {"test_system": "HOP-92 NSCLC"}, "[17]": {"test_system": "HS 578T breast"}, "[18]": {"test_system": "HT29 colon"}, "[19]": {"test_system": "K-562 leukemia"}, "[20]": {"test_system": "KM12 colon"}, "[21]": {"test_system": "LOX IMVI melanoma"}, "[22]": {"test_system": "M14 melanoma"}, "[23]": {"test_system": "MCF7 breast"}, "[24]": {"test_system": "MDA-MB-231 breast"}, "[25]": {"test_system": "MDA-MB-435"}, "[26]": {"test_system": "MOLT-4 leukemia"}, "[27]": {"test_system": "NCI-H226 lung"}, "[28]": {"test_system": "NCI-H23 lung"}, "[29]": {"test_system": "NCI-H460 lung"}, "[30]": {"test_system": "NCI-H522 lung"}, "[31]": {"test_system": "NCI/ADR-RES ovarian"}, "[32]": {"test_system": "OVCAR-3 ovarian"}, "[33]": {"test_system": "OVCAR-4 ovarian"}, "[34]": {"test_system": "OVCAR-5 ovarian"}, "[35]": {"test_system": "PC-3 prostate"}, "[36]": {"test_system": "RPMI-8226 leukemia"}, "[37]": {"test_system": "RXF 393 renal"}, "[38]": {"test_system": "SF-268 CNS"}, "[39]": {"test_system": "SF-295 CNS"}, "[40]": {"test_system": "SF-539 CNS"}, "[41]": {"test_system": "SK-MEL-2 melanoma"}, "[42]": {"test_system": "SK-MEL-28 melanoma"}, "[43]": {"test_system": "SK-MEL-5 melanoma"}, "[44]": {"test_system": "SK-OV-3 ovarian"}, "[45]": {"test_system": "SNB-19 CNS"}, "[46]": {"test_system": "SNB-75 CNS"}, "[47]": {"test_system": "SR leukemia"}, "[48]": {"test_system": "SW-620 colon"}, "[49]": {"test_system": "T-47D breast"}, "[50]": {"test_system": "TK-10 renal"}, "[51]": {"test_system": "U251 CNS"}, "[52]": {"test_system": "UACC-62 melanoma"}, "[53]": {"test_system": "UO-31 renal"}}, "note": "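How tested: cells in 96-well plates exposed to compound for 48 hours at five concentrations. At the GI50, growth is halved. At the TGI there is no net growth.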"}
{"smiles": "COc1ccc2c(CCC(c3ccccc3)c3ccccc3)c3[n+](cc2c1OC)CCc1cc2c(cc1-3)OCO2", "values": [{"measurement": "GI50", "setting": "[1]", "value": 1.09, "unit": "µM"}, {"measurement": "TGI", "setting": "[1]", "value": 2.5, "unit": "µM"}, {"measurement": "GI50", "setting": "[2]", "value": 1.31, "unit": "µM"}, {"measurement": "TGI", "setting": "[2]", "value": 6.8, "unit": "µM"}, {"measurement": "GI50", "setting": "[3]", "value": 1.55, "unit": "µM"}, {"measurement": "TGI", "setting": "[3]", "value": 5.07, "unit": "µM"}, {"measurement": "GI50", "setting": "[4]", "value": 1.29, "unit": "µM"}, {"measurement": "TGI", "setting": "[4]", "value": 5.22, "unit": "µM"}, {"measurement": "GI50", "setting": "[5]", "value": 0.268, "unit": "µM"}, {"measurement": "TGI", "setting": "[5]", "value": 1.35, "unit": "µM"}, {"measurement": "GI50", "setting": "[6]", "value": 3.94, "unit": "µM"}, {"measurement": "TGI", "setting": "[6]", "value": 16.1, "unit": "µM"}, {"measurement": "GI50", "setting": "[7]", "value": "< 0.0398", "unit": "µM"}, {"measurement": "TGI", "setting": "[7]", "value": 2.71, "unit": "µM"}, {"measurement": "GI50", "setting": "[8]", "value": 0.0831, "unit": "µM"}, {"measurement": "TGI", "setting": "[8]", "value": 0.619, "unit": "µM"}, {"measurement": "GI50", "setting": "[9]", "value": 0.348, "unit": "µM"}, {"measurement": "TGI", "setting": "[9]", "value": 1.8, "unit": "µM"}, {"measurement": "GI50", "setting": "[10]", "value": 0.492, "unit": "µM"}, {"measurement": "TGI", "setting": "[10]", "value": 7.25, "unit": "µM"}, {"measurement": "GI50", "setting": "[11]", "value": 0.326, "unit": "µM"}, {"measurement": "TGI", "setting": "[11]", "value": 1.93, "unit": "µM"}, {"measurement": "GI50", "setting": "[12]", "value": 0.202, "unit": "µM"}, {"measurement": "TGI", "setting": "[12]", "value": 1.27, "unit": "µM"}, {"measurement": "GI50", "setting": "[13]", "value": 2.28, "unit": "µM"}, {"measurement": "TGI", "setting": "[13]", "value": 7.43, "unit": "µM"}, {"measurement": "GI50", "setting": "[14]", "value": 0.0822, "unit": "µM"}, {"measurement": "TGI", "setting": "[14]", "value": 0.526, "unit": "µM"}, {"measurement": "GI50", "setting": "[15]", "value": 0.546, "unit": "µM"}, {"measurement": "TGI", "setting": "[15]", "value": 1.8, "unit": "µM"}, {"measurement": "GI50", "setting": "[16]", "value": 0.15, "unit": "µM"}, {"measurement": "TGI", "setting": "[16]", "value": 0.596, "unit": "µM"}, {"measurement": "GI50", "setting": "[17]", "value": 0.799, "unit": "µM"}, {"measurement": "TGI", "setting": "[17]", "value": 3.82, "unit": "µM"}, {"measurement": "GI50", "setting": "[18]", "value": 0.139, "unit": "µM"}, {"measurement": "TGI", "setting": "[18]", "value": 1.31, "unit": "µM"}, {"measurement": "GI50", "setting": "[19]", "value": 0.327, "unit": "µM"}, {"measurement": "TGI", "setting": "[19]", "value": 3.01, "unit": "µM"}, {"measurement": "GI50", "setting": "[20]", "value": 0.16, "unit": "µM"}, {"measurement": "TGI", "setting": "[20]", "value": 1.19, "unit": "µM"}, {"measurement": "GI50", "setting": "[21]", "value": 0.255, "unit": "µM"}, {"measurement": "TGI", "setting": "[21]", "value": 1.36, "unit": "µM"}, {"measurement": "GI50", "setting": "[22]", "value": 0.296, "unit": "µM"}, {"measurement": "TGI", "setting": "[22]", "value": 1.74, "unit": "µM"}, {"measurement": "GI50", "setting": "[23]", "value": 0.483, "unit": "µM"}, {"measurement": "TGI", "setting": "[23]", "value": 3.22, "unit": "µM"}, {"measurement": "GI50", "setting": "[24]", "value": 1.1, "unit": "µM"}, {"measurement": "TGI", "setting": "[24]", "value": 3.48, "unit": "µM"}, {"measurement": "GI50", "setting": "[25]", "value": 0.143, "unit": "µM"}, {"measurement": "TGI", "setting": "[25]", "value": 1.41, "unit": "µM"}, {"measurement": "GI50", "setting": "[26]", "value": 0.381, "unit": "µM"}, {"measurement": "TGI", "setting": "[26]", "value": 3.04, "unit": "µM"}, {"measurement": "GI50", "setting": "[27]", "value": 1.56, "unit": "µM"}, {"measurement": "TGI", "setting": "[27]", "value": 5.33, "unit": "µM"}, {"measurement": "GI50", "setting": "[28]", "value": 0.242, "unit": "µM"}, {"measurement": "TGI", "setting": "[28]", "value": 1.94, "unit": "µM"}, {"measurement": "GI50", "setting": "[29]", "value": 0.0123, "unit": "µM"}, {"measurement": "TGI", "setting": "[29]", "value": 1.03, "unit": "µM"}, {"measurement": "GI50", "setting": "[30]", "value": 0.122, "unit": "µM"}, {"measurement": "TGI", "setting": "[30]", "value": 0.858, "unit": "µM"}, {"measurement": "GI50", "setting": "[31]", "value": 13.1, "unit": "µM"}, {"measurement": "TGI", "setting": "[31]", "value": 55.7, "unit": "µM"}, {"measurement": "GI50", "setting": "[32]", "value": 0.028, "unit": "µM"}, {"measurement": "TGI", "setting": "[32]", "value": 1.3, "unit": "µM"}, {"measurement": "GI50", "setting": "[33]", "value": 0.271, "unit": "µM"}, {"measurement": "TGI", "setting": "[33]", "value": 1.51, "unit": "µM"}, {"measurement": "GI50", "setting": "[34]", "value": 1.76, "unit": "µM"}, {"measurement": "TGI", "setting": "[34]", "value": 5.95, "unit": "µM"}, {"measurement": "GI50", "setting": "[35]", "value": 0.112, "unit": "µM"}, {"measurement": "TGI", "setting": "[35]", "value": 0.837, "unit": "µM"}, {"measurement": "GI50", "setting": "[36]", "value": 0.0507, "unit": "µM"}, {"measurement": "TGI", "setting": "[36]", "value": 1.72, "unit": "µM"}, {"measurement": "GI50", "setting": "[37]", "value": 0.686, "unit": "µM"}, {"measurement": "TGI", "setting": "[37]", "value": 2.2, "unit": "µM"}, {"measurement": "GI50", "setting": "[38]", "value": 0.519, "unit": "µM"}, {"measurement": "TGI", "setting": "[38]", "value": 1.98, "unit": "µM"}, {"measurement": "GI50", "setting": "[39]", "value": 0.732, "unit": "µM"}, {"measurement": "TGI", "setting": "[39]", "value": 3.99, "unit": "µM"}, {"measurement": "GI50", "setting": "[40]", "value": 0.846, "unit": "µM"}, {"measurement": "TGI", "setting": "[40]", "value": 3.67, "unit": "µM"}, {"measurement": "GI50", "setting": "[41]", "value": 0.0705, "unit": "µM"}, {"measurement": "TGI", "setting": "[41]", "value": 1.04, "unit": "µM"}, {"measurement": "GI50", "setting": "[42]", "value": 0.462, "unit": "µM"}, {"measurement": "TGI", "setting": "[42]", "value": 2.06, "unit": "µM"}, {"measurement": "GI50", "setting": "[43]", "value": 0.0383, "unit": "µM"}, {"measurement": "TGI", "setting": "[43]", "value": 0.214, "unit": "µM"}, {"measurement": "GI50", "setting": "[44]", "value": 0.593, "unit": "µM"}, {"measurement": "TGI", "setting": "[44]", "value": 1.74, "unit": "µM"}, {"measurement": "GI50", "setting": "[45]", "value": 0.242, "unit": "µM"}, {"measurement": "TGI", "setting": "[45]", "value": 1.74, "unit": "µM"}, {"measurement": "GI50", "setting": "[46]", "value": 0.266, "unit": "µM"}, {"measurement": "TGI", "setting": "[46]", "value": 1.84, "unit": "µM"}, {"measurement": "GI50", "setting": "[47]", "value": 0.373, "unit": "µM"}, {"measurement": "TGI", "setting": "[47]", "value": 3.24, "unit": "µM"}, {"measurement": "GI50", "setting": "[48]", "value": 0.315, "unit": "µM"}, {"measurement": "TGI", "setting": "[48]", "value": 1.63, "unit": "µM"}, {"measurement": "GI50", "setting": "[49]", "value": 0.241, "unit": "µM"}, {"measurement": "TGI", "setting": "[49]", "value": 1.76, "unit": "µM"}, {"measurement": "GI50", "setting": "[50]", "value": 0.339, "unit": "µM"}, {"measurement": "TGI", "setting": "[50]", "value": 1.58, "unit": "µM"}, {"measurement": "GI50", "setting": "[51]", "value": 0.172, "unit": "µM"}, {"measurement": "TGI", "setting": "[51]", "value": 1.38, "unit": "µM"}, {"measurement": "GI50", "setting": "[52]", "value": 0.153, "unit": "µM"}, {"measurement": "TGI", "setting": "[52]", "value": 1.76, "unit": "µM"}, {"measurement": "GI50", "setting": "[53]", "value": 3.2, "unit": "µM"}, {"measurement": "TGI", "setting": "[53]", "value": 13.3, "unit": "µM"}]}
